Assay results: patent EP0302760A2, “Antiviral therapy for hepatitis B using 2',3'-dideoxynucleosides” (priority 1987, dated 1989)
In brackets after ≈: the same amount, converted by molar mass. Where two headings read alike, the source gives them in different places.

Assays:
adenosine deaminase = adenosine deaminase (Homo sapiens, UniProt P00813); details: Balzarini et al 1987; cited from earlier work
[1] = tested on: duck hepatitis B virus (DHBV); test: Dot blot hybridization of DHBV DNA from DHBV-infected primary duck hepatocyte cultures; assay type: cell-based; details: for inhibition at 1 µg/mL / IC50 / inhibition at 10 µg/mL: Duck hepatitis B virus, Hepatocyte; for inhibition at 1 µg/mL / inhibition at 10 µg/mL: 480 h; for inhibition at 1 µg/mL: read-out: PERCENTAGE INHIBITION, 1 µg/ml; for IC50: DHBV-infected hepatocytes, drug from day 2, DNA extracted on day sixteen, radioactivity of dots counted, read-out: concentrations of nucleoside analog required to inhibit the virus replication by 50% (ID₅₀); for inhibition at 10 µg/mL: read-out: PERCENTAGE INHIBITION, 10 µg/ml
Description: Dose response curves for the purine 2′,3′-dideoxynucleosides and pyrimidine 2′,3′-dideoxynucleosides have been established by using the duck hepatitis B virus (DHBV) infected hepatocyte system. The DHBV-infected hepatocyte cultures were established as described in Example 1. Dideoxynucleoside analogs were added to the media of the hepatocyte cultures on day 2 and maintained in culture with media changes every two days. On day sixteen the DNA was extracted from the cells and the dot blots performed using the ³²P-labelled DHBV probe. The radioactivity of each "dot" was quantitated by cutting out the "dot" and counting the radioactivity. The abbreviations used in Figure 1, setting out the dose response curves, are as follows: ddA = 2′,3′-dideoxyadenosine; ddG = 2′,3′-dideoxyguanosine; ddDAPR = 2,6-diaminopurine 2′,3′-dideoxyriboside; ddI = 2′,3′-dideoxyinosine; ddT = 2′,3′-dideoxythymidine; ddC = 2′,3′-dideoxycytidine.
Newborn ducklings are infected with DHBV. After 5 to 7 days post-infection, samples of blood are taken from the ducklings and examined for DHBV DNA using dot hybridization with a specific DNA probe [Mason et al, Proc. Natl. Acad. Sci. USA 79, 3997-4001 (1982)]. The livers are removed from dot-blot positive ducklings and used to produce primary hepatocyte cultures infected with DHBV as previously described. (Tuttleman et al, J. of Virology, 58, 17-25). After 2 days in culture, antiviral agents are added to the culture media. The media are changed every 2 days and at selected times, the cells are removed and the total DNA extracted.
The DNA is spotted on nitrocellulose paper and probed with the ³²P-labelled DHBV DNA probe in accordance with the following procedure. The DNA from DHBV-infected hepatocytes was extracted and spotted onto a nitrocellular filter. The above described ³²P-nick translated - DHBV DNA (pDH-010=DHBV) probe was used. The DNA was extracted from 6-cm cell culture dishes at various times post-plating. In the VC group, cells were harvested at 2, 6, 8, 10, 14, 18 and 20 days. Duplicate samples were spotted for days 14, 18 and 20. In drug-treated groups, cells were harvested on days 8, 14 and 20. In Figure 1, this is from left to right. Drugs were added to the culture at 2 days post-plating and maintained throughout media changes every 2 days. The concentrations (µg/ml) used are indicated in Figure 1 for 2′,3′-dideoxythymidine (ddT), 2′,3′-dideoxycytidine (ddC), adenine arabinoside (ara A), 2′,3′-dideoxyadenosine (ddA) and 2′,3′-dideoxyguanosine (ddG). The total intracellular DNA was extracted from cells using the standard phenol extraction method. The cells in a 6-cm diameter Petri dish (approximately 5 x 10⁶ cells) were lysed in a lysis buffer containing 0.2% SDS, 150 mM Tris-HCl pH 8.0, 10 mM EDTA, 5 mM EGTA, and 150 mM NaCl. The cell lysate was digested with 0.5 mg/ml of pronase E (available from Sigma) at 37°C for 2 hours and deproteinized by extraction with an equal volume of phenol saturated with 20 mM Tris HCl, pH 7.5, 0.5 mM EDTA and 0.1% 8-hydroxyquinoline. Concentrated ammonium acetate [pH 7.0 (2.5 M)] was added to the aqueous phase to yield a 0.25 M ammonium acetate solution and the nucleic acids were precipitated with 2 volumes of 100% ethanol. The pellet of nucleic acid was washed with ethanol and dried. The DNA was dissolved in a solution containing 12.5 mM Tris HCl, pH 7.5, 10 mM EDTA, 30% glycerol and 0.01% bromophenol blue. One twelfth of the DNA sample was spotted onto the nitrocellulose for dot-blot analysis. ddA, ddG, ddC and ddT were purchased from Pharmacia. 2,6-Diaminopurine 2′,3′-dideoxyriboside [or 2,6-diamino-9-2,3-dideoxy-β-D-glycero-pentofuranosyl)purine] (ddDAPR) can be prepared by a procedure recently used for efficient conversion of adenosine into its ddAdo derivative (Robins et al, Tetrahedron Lett., 25, […], 1984; Hansske and Robins, Tetrahedron Lett., 26, 4295-4298, 1985).

DHBV = test: In vivo treatment of Pekin ducks persistently infected with DHBV, dot blot of sera; details: 10 mg/kg twice daily by intramuscular injection, four ducks
Description: Additional tests were conducted to verify the activity in vivo. Four Pekin ducks with proven persistent infection with DHBV were treated with 2,6-diaminopurine 2′,3′-dideoxyriboside (ddDAPR). The animals received 10 mg/kg twice daily by intramuscular injection for two weeks. […] All five animals had evidence of persistent infection with DHBV. […] The untreated duck (number 5) was not bled at this time. […] The control animal (number 5) remained strongly positive after 2 weeks (row c, column 5).

[2] = Conversion of ddDAPR to ddG in whole blood; assay type: in vitro ADME; details: whole blood from a duck, in 5 minutes; read-out: ddDAPR metabolized to ddG
Text: We have also confirmed that ddDAPR is rapidly metabolized to ddG. This has been done using whole blood from a duck and measuring the rate of conversion of ddDAPR to ddG.

DHBV DNA = test: Southern blot analysis of intracellular viral DNA from DHBV-infected hepatocytes; assay type: cell-based, duck hepatitis B virus (DHBV); details: for inhibition at 1 µg/mL: Duck hepatitis B virus, Hepatocyte, similar experiments to the Southern blot of Example 2; for change in DHBV DNA forms in treated hepatocytes: from day 14 to day 20
Description: Southern blot analysis of intracellular viral DNA was separated on a 1.5% agarose gel. The DNA was extracted from DHBV-infected hepatocytes in a 6-cm dish and one fifth of the total DNA was applied onto each lane. […] Drug-treated groups were harvested 14 and 20 days post-plating. The DNA samples from drug-treated hepatocytes were ddA (10 µg/ml), day 14 (lane 5) and day 20 (lane 6), ddA (1 µg/ml), day 14 (lane 7) and day 20 (lane 8), ddG (10 µg/ml), day 14 (lane 9) and day 20 (lane 10), ddG (1 µg/ml), day 14 (lane 11) and day 20 (lane 12). The size markers (Kilobases) were obtained from HindIII digested bacteriophage λ DNA.

extracellular DHBV = test: Southern blot analysis of extracellular virion DNA from culture media of DHBV-infected hepatocytes; assay type: cell-based, duck hepatitis B virus (DHBV); details: 1 µg/ml; culture media pooled from day 16 to day 20
Text: Southern blot analysis of the extracellular virion DNA was separated on a 1.5% agarose gel. Culture media were pooled from the day 16 to day 20 post-plating. Pelleted virions were digested with pronase and the DNA from the entire sample was applied to each lane. […] RC in Figure 3 indicated relaxed circular DNA.

[3] = tested on: monkey kidney cells (Vero); test: Toxicity (cell viability) in monkey kidney cells; assay type: cell-based; details: 100 µg/ml over a 10 day exposure
Description: (§1) The toxicity of the purine 2′,3′-dideoxynucleosides has been tested in duck hepatocytes and monkey kidney cells (Vero) to reveal that decreased cell viability with ddA or ddG at 100 µg/ml over a 10 day exposure was not detected. As is known, several lymphocyte cell lines have been examined before for viability and function in the presence of 2′,3′-dideoxynucleosides. These cell lines have not shown decreased viability and function in the presence of 2′,3′-dideoxynucleosides.

duck hepatocytes = test: Toxicity (cell viability) in duck hepatocytes; assay type: cell-based; details: 100 µg/ml over a 10 day exposure
Description: as §1

[4] = cited from earlier work
hepatitis B virus = details: cited from earlier work
[5] = densitometry scans of the dot hybridization at 20 days

Sequence of adenosine deaminase (P00813 whole entry): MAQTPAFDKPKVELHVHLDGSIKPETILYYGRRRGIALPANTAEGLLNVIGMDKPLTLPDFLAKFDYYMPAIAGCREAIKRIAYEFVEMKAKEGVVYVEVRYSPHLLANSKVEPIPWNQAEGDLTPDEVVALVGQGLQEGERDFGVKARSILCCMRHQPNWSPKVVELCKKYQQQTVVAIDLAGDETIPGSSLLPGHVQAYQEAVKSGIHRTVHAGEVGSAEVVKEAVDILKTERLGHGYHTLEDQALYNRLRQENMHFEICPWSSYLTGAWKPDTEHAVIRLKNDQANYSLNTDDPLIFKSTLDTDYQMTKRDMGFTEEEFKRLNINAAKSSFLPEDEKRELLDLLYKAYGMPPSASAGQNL

Nc1nc(N)c2ncn([C@H]3CC[C@@H](CO)O3)c2n1 [ddDAPR, 2,6-diaminopurine 2′,3′-dideoxyriboside]
deamination by adenosine deaminase (adenosine deaminase): deaminated by adenosine deaminase
inhibition at 1 µg/mL [1, 5]: 98%
IC50 ([1]; Figure 1): 0.07 mg/L (≈ 0.28 µM)
clearance of the virus from the sera (DHBV; after 1 week): completely cleared the virus from their sera
clearance of the virus from the sera (DHBV; after 2 weeks): cleared from the sera
metabolised at 5 min [2]: > 95%
inhibition at 1 µg/mL (DHBV DNA; 1 µg/ml): > 95%

2′,3′-dideoxythymidine [ddT, reference compound]
inhibition of DHBV replication ([1]; dose response curve, day sixteen, Figure 1): no inhibition
production of extracellular virus (extracellular DHBV): fail to inhibit

Nc1nc2c(ncn2[C@H]2CC[C@@H](CO)O2)c(=O)[nH]1 [ddG, 2′,3′-dideoxyguanosine]
inhibition at 1 µg/mL [1, 5]: > 99%
inhibition at 10 µg/mL [1, 5]: > 99%
IC50 ([1]; Figure 1): 0.07 mg/L (≈ 0.279 µM)
decreased cell viability [3]: not detected
decreased cell viability (duck hepatocytes): not detected
change in DHBV DNA forms in treated hepatocytes (DHBV DNA): decrease in all forms of DHBV DNA
production of extracellular virus (extracellular DHBV): markedly decreased

Cc1cn([C@H]2C[C@H](N=[N+]=[N-])[C@@H](CO)O2)c(=O)[nH]c1=O [AZT, 3′-azido-3′deoxythymidine]
peak plasma levels ([4]; after infusions of 1 mg/kg): 1 µg/mL
peak plasma levels ([4]; after oral administration of 2 mg/kg): 1 µg/mL

Nc1ccn([C@H]2CC[C@@H](CO)O2)c(=O)n1 [ddC, 2′,3′-dideoxycytidine, reference compound]
PERCENTAGE INHIBITION ([1]; 1 µg/ml, densitometry scans of the dot hybridization at 20 days): little inhibitory effect
inhibition at 1 µg/mL [1, 5]: 0%
inhibition at 10 µg/mL [1, 5]: ~57%
IC50 ([1]; Figure 1): 40 mg/L (≈ 189 µM)
production of extracellular virus (extracellular DHBV): fail to inhibit

Nc1ncnc2c1ncn2[C@H]1CC[C@@H](CO)O1 [ddA, 2′,3′-dideoxyadenosine]
inhibition at 1 µg/mL [1, 5]: > 99%
inhibition at 10 µg/mL [1, 5]: > 99%
IC50 ([1]; Figure 1): 0.12 mg/L (≈ 0.51 µM)
decreased cell viability [3]: not detected
decreased cell viability (duck hepatocytes): not detected
inhibition of the synthesis of all forms of DHBV DNA (DHBV DNA; 1 µg/ml, RC, CCC and SS forms): very strong inhibition
change in DHBV DNA forms in treated hepatocytes (DHBV DNA): small increase in RC DNA
production of extracellular virus (extracellular DHBV): markedly decreased

Nc1ncnc2c1ncn2[C@@H]1O[C@H](CO)[C@@H](O)[C@@H]1O [araA, adenine arabinoside]
inhibition at 10 µg/mL [1, 5]: ~63%
toxicity associated with therapy (hepatitis B virus; chronic hepatitis B patients): bone marrow suppression, neuromuscular pain and neurotoxicity
treated patients that show some benefit from therapy (hepatitis B virus; chronic hepatitis B, most open and controlled studies): about 30%

OC[C@@H]1CC[C@H](n2cnc3c(O)ncnc32)O1 [ddI, 2′,3′-dideoxyinosine]
inhibition at 1 µg/mL [1, 5]: 96%
inhibition at 1 µg/mL (DHBV DNA; 1 µg/ml): > 95%
